Reference: patent EP3102204B1 (The University Of Mississippi, priority 2014, dated 2015)
Where two headings read alike, the source gives them in different places.

Assays:
σ-1 receptor [1] = test: Cell uptake studies in transfected CHO cells; details: at 120 min
Method: Control CHO cells (transfected with a vector not containing the σ-1 receptor gene - to serve as a negative control) and CHO cells transfected with a vector containing σ-1 receptor cDNA (to serve as a positive control for σ-1 receptor expression in cells) were used for the uptake assays. […] The incubated cells were subsequently washed, lysed and counted for radioactivity. All collected data were normalized for amount of protein present in each well.
Cells CHO cells were grown in Ham's F-12 medium. For uptake studies CHO cells were transfected using Lipofectamine 2000 (Invitrogen, Carlsbad, CA, USA) and either pcDNA (empty vector, negative control) or σ-1 receptor gene (OPRS1, accession number NM_005866.2, origin, Rockville, MD, USA) following manufacturer's directions. […] Twenty-four hours later, CHO cells were transfected with either 0.8 µg pcDNA (empty vector, control), or 0.8 µg sigma-1 DNA. […] A portion of each lysate (250 µL) was transferred to a glass tube and activity was measured with a Cobra II γ counter (Packard-Perkin Elmer, Waltham, MA, USA). Protein content from each well was measured by Bradford assay. The same protocol was followed for (+)-[^3H]pentazocine, except the activity was measured with a liquid scintillation counter (Beckman Coulter LS 6500, Brea, CA, USA).

in vitro [2] = type: in vitro ADME, rat
Method: Metabolic stability of AZ_66 (1µM) was performed in Ammonium acetate buffer (50mM, pH 7.4) with Rat liver microsomes (0.5mg) at 37 °C in 0.5ml of incubation mixture. The incubation mixture composed of Ammonium acetate buffer (50mM, pH 7.4), Magnesium chloride (3mM), a NADPH regenerating system consisting of NADP (1mM), glucose-6-phosphate (5mM), and glucose-6-phosphate dehydrogenase (1Unit/mL). The Substrate and microsomes were pre incubated at 37°C for 5 min before starting the reaction. The reactions were started by the addition of regenerating system and carried out at 37°C in a shaking water bath for 60min. The incubations were stopped by adding an equal volume of ice cold acetonitrile at predetermined time points (0, 5, 15, 30, 60 min). The samples were centrifuged for 10min at 4°C and the supernatant was injected into UPLC/MS/MS. Control incubation without NADPH was also performed and these served as 100% value. All microsomal incubations were conducted using the same lot of microsomes.
In vitro half-life and CLint: The percent of the parent compound remaining is plotted versus time. The slope of the line gives the rate constant k for the disappearance of parent compound, from which an in vitro t1/2 can be calculated. CLint can be calculated using the following formula CLint = k(min^−1) × ([V](L))/([P](mg)) = (L/mg×min) [formula] […]

dopamine transporters = test: Non-σ competition binding assay, [3H]WIN35,428; details: rat brain homogenates; read-out: DAT Ki
Method: (§1) Compounds were tested at various non-σ target sites to evaluate selectivity because cocaine interacts with these sites (dopamine, serotonin and norepinephrine transporters) or historic "sigma" ligands interact with them (opioid, NMDA, dopamine D2, 5-HT2 receptors). The compounds were tested in competition binding assays using rat brain homogenates as previously published. […] The results were reported as Ki in nM.

5-HT2 receptors = test: Non-σ competition binding assay, [3H]ketanserin; details: rat brain homogenates
Method: as §1

serotonin transporters = test: Non-σ competition binding assay, [3H]paroxetine; details: rat brain homogenates; read-out: SERT Ki
Method: as §1

Male, Swiss Webster mice [3] = test: Methamphetamine-induced locomotor activity; type: in vivo; details: pretreatment i.p. 15 min before methamphetamine 1 mg/kg i.p.
Method: Male, Swiss Webster mice were acclimated as detailed above. […] The total locomotor activity (ambulatory, fine and rearing movements) of the mice was recorded for the next 30 min as the number of disruptions made by them in the 16x16 photobeam grids surrounding their testing chambers.

Male, Swiss Webster mice [4] = test: Expression of cocaine-induced sensitization; type: in vivo; details: compound on Day 15 before cocaine 10 mg/kg i.p.
Method: Male, Swiss Webster mice were acclimated as detailed above. For five consecutive days (Days 1-5), the mice were pretreated (i.p.) with saline, then challenged 15 min later with cocaine (10mg/kg, i.p.). The total locomotor activity (ambulatory, fine and rearing movements) of the mice was recorded for the next 30 min. A 10 day drug free period followed and on Day 15, the mice were administered saline (i.p.) or compound (0.1-20mg/kg), followed15 min later with cocaine (10mg/kg, i.p.). Locomotor activity was then recorded for the next 30 min.

[5] = biological target: norepinephrine transporters; test: Non-σ competition binding assay, [3H]nisoxetine; details: rat brain homogenates; read-out: NET Ki
Method: as §1

Male, Swiss Webster mice [6] = test: Cocaine-induced convulsions; type: in vivo; details: pretreatment i.p. 15 min before cocaine 70 mg/kg i.p.
Male, Swiss Webster mice [7] = test: Cocaine-induced locomotor activity; type: in vivo; details: pretreatment i.p. 15 min before cocaine 20 mg/kg i.p.
Method: Male, Swiss Webster mice were acclimated to the treatment room and then to the chambers of the automated activity monitoring system (San Diego Instruments, San Diego, CA). […] The total locomotor activity (ambulatory, fine and rearing movements) of the mice was recorded for the next 30 min as the number of disruptions made by them in the 16x16 photobeam grid of their testing chamber.

NMDA receptors = test: Non-σ competition binding assay, [3H]TCP; details: rat brain homogenates
Method: as §1

dopamine D2 receptors = biological target: T1, dopamine D2 receptors (Rattus norvegicus, UniProt P61169); test: Non-σ competition binding assay, [3H](-)-sulpiride; details: rat brain homogenates
T1 construct: from tissue; host or cells: rat brain homogenate
T1 sequence (P61169 whole entry): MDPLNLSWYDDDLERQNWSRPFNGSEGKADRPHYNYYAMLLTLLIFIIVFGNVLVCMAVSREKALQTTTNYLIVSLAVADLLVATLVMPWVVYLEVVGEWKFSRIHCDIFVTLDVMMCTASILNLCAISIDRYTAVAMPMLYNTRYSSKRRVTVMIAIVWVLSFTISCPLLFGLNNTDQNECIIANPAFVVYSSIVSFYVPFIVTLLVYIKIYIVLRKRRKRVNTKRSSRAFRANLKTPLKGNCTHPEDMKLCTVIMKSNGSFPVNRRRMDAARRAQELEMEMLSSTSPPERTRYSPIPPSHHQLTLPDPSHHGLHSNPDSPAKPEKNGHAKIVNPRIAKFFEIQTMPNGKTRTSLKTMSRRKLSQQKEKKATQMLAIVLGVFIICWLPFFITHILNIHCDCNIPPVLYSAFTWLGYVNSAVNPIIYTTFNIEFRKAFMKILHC
Method: as §1

Male, Swiss Webster mice [8] = test: Methamphetamine-induced dopamine depletions; type: in vivo; details: methamphetamine 5 mg/kg x 4 at 2 hr intervals; striatal dopamine one week later
Method: Male, Swiss Webster mice were injected (i.p.) with saline or compound (0-20mg/kg), followed 15 min later with either saline (- METH) or methamphetamine (5mg/kg) at 2hr intervals, a total of four times. Striatal dopamine levels were measured one week later.

[9] = pKa by potentiometric titration; type: physicochemical
Method: A solution of 0.01 M sodium hydroxide was prepared and the pH measured as 11.9. Similarly, 0.01 M hydrochloric acid solution was prepared and the pH measured as 2.07. […] To the same sample, 0.1 mL portions of hydrochloric acid were added and pH recorded until it became constant. A titration curve was then plotted as pH versus the volume of base/acid added.

in vitro [10] = type: in vitro ADME; design: dose or concentration left out as unconfirmed; details: pH 7.4; mouse liver microsomes, NADPH-generating system, 37 °C
Method: The reaction was initiated by adding cofactors and quenched at designated time points (0, 5, 10, 15, 30, 45, 60 min) by the addition of an equal volume of ice-cold acetonitrile (ACN). […].
The basic incubation mixture consisted of 5 mM substrate, 1 mg/mL microsomal protein, 3 mM MgCl2, 1 mM NADP, 5 mM glucose-6-phosphate, 1 IU/mL glucose-6-phosphate dehydrogenase, 100 mM Tris HCl buffer (pH 7.4) in a final volume of 1 mL. The reaction was initiated by adding cofactors and quenched at designated time points (0, 5, 10, 15, 30, 45, 60 min) by addition of an equal volume of ice-cold ACN. The mixture was centrifuged at 3000 rpm for 10 min, and the supernatant was analyzed by UPLC/MS/MS.

σ-1 receptors [11] = test: In vitro radioligand binding assays of CM304 at sigma receptors; design: species or system rat
Method: Competition binding assays were performed as previously described. Briefly, radioligands were used to tag the targeted sites under standard conditions.

σ-2 = biological target: T2, σ-2 (Rattus norvegicus, UniProt Q5U3Y7); test: σ receptor assay: σ-2 binding with [3H]DTG plus (+)-pentazocine; details: for Ki: rat brain homogenates
T2 construct: from tissue; host or cells: rat brain homogenate (membrane protein)
T2 sequence (Q5U3Y7 1-176): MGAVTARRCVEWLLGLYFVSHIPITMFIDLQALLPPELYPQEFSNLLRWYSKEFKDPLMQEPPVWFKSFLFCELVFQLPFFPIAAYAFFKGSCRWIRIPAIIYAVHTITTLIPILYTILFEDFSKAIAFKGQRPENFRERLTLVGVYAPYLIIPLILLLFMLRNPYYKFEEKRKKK
Method: (§2) Compounds were evaluated for σ -1 and σ -2 binding in rat brain homogenates. […] The assays were terminated with ice-cold 10 mM Tris-HCl, pH 8.0, followed by two washes through glass fiber filters that were pre-soaked for at least 30 min in 0.5% polyethyleneimine.

σ-1 = σ-1 (Rattus norvegicus, UniProt Q9R0C9); test: σ receptor assay: σ-1 binding with [3H](+)-pentazocine; details: rat brain homogenates; CM table
Chain of σ-1 (Q9R0C9 whole entry): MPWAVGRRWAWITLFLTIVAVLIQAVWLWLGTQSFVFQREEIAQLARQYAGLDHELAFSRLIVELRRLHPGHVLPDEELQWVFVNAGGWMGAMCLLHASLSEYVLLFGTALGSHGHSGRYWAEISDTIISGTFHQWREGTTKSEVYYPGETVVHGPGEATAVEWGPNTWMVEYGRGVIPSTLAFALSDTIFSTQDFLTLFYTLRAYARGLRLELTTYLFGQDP
Method: as §2

Male, Swiss Webster mice [12] = test: Development of cocaine-induced sensitization; type: in vivo; details: pretreatment Days 1-5, cocaine 10 mg/kg i.p.
Method: Male, Swiss Webster mice were acclimated as detailed above. […] The total locomotor activity (ambulatory, fine and rearing movements) of the mice was recorded for the next 30 min as the number of disruptions made by them in the 16x16 photobeam grids of their testing chamber on each of the five days. A 10 day drug-free period followed. On Day 15, all of the mice were pre-administered (i.p.) saline followed by cocaine (10mg/kg, i.p.), and locomotor activity quantified for the next 30 min.

[13] = analytical reverse-phase HPLC
σ-1 receptors [14] = biological target: σ-1 receptors (Mus musculus, UniProt O55242); test: Small-animal PET imaging in mice (brain); type: in vivo
Chain of σ-1 receptors (Mus musculus, UniProt O55242) (O55242 whole entry): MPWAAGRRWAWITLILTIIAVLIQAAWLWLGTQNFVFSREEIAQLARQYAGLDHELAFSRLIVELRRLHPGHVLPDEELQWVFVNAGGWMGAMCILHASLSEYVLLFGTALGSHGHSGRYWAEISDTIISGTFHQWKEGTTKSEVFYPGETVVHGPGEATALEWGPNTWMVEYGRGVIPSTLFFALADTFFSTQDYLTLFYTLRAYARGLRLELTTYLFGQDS

σ-1 receptor [15] = details: cited from earlier work

CC(C)=CCN1CC[C@]2(C)c3cc(O)ccc3C[C@H]1[C@H]2C [(+)-[^3H] pentazocine, reference compound]
uptake in cells transfected with σ-1 receptor cDNA versus control CHO cells (σ-1 receptor [1]): 3.6 fold

CC(CCCn1c(=O)sc2cc(F)ccc21)N1CCN(C2CCCCC2)CC1 (stereo not shown) [AZ_66]
loss of substrate in the absence of cofactor (in vitro [2]; control incubation without NADPH): no loss of substrate | metabolised at 1 h, 1 µM (in vitro [2]; rat, microsomes, pH 7.4, by 60 min, read-out: added substrate metabolized by microsomes): ~25%

S=c1sc2ccccc2n1CCCCN1CCN(C2CCCCC2)CC1 [CM156]
Ki (dopamine transporters): 1175 ± 10 nM | Ki (5-HT2 receptors): 1330 ± 159 nM | Ki (serotonin transporters): 1400 ± 152 nM | locomotor stimulant effects of methamphetamine (Male, Swiss Webster mice [3]): attenuated | expression of cocaine-induced sensitization (behavioral sensitization) (Male, Swiss Webster mice [4]): significant attenuation | Ki [5]: > 10000 nM | attenuation of cocaine-induced convulsions (Male, Swiss Webster mice [6]): significant attenuation | attenuation of cocaine-induced locomotor activity (Male, Swiss Webster mice [7]): significant attenuation | Ki (NMDA receptors): > 10000 nM | Ki (dopamine D2 receptors): 1041 ± 9 nM | neurotoxic effects resulting from methamphetamine exposures (dopamine depletions) (Male, Swiss Webster mice [8]): attenuated

Cl.O=c1sc2cc(CCCF)ccc2n1CCN1CCCCCC1 [CM304, 3-(2-(azepan-1-yl)ethyl)-6-(3-fluoropropyl)benzo[d]thiazol-2(3H)-one hydrochloride]
experimental pKa [9]: 10.4 | half-life (in vitro [10]): 4.2 min | Ki (σ-1 receptors [11]): 0.0025 nM | attenuation of cocaine-induced convulsions (Male, Swiss Webster mice [6]): significantly attenuated

O=c1oc2ccccc2n1CCCCN1CCN(C2CCCCC2)CC1 [CM 121]
preference (selectivity) for the σ-2 subtype (σ-2; σ-2 over σ-1): six fold

O=c1sc2ccccc2n1CCCCN1CCN(C2CCCCC2)CC1 [CM 145]
Ki (σ-2; CM table, read-out: Ki (nM) […]2): 0.39 ± 0.06 nM

c1ccc2c(c1)ccn2CCCCN1CCN(C2CCCCC2)CC1 [CM 341]
Ki (σ-2; CM table, read-out: Ki (nM) […]2): 1.9 ± 0.16 nM

Fc1ccc(-c2cn(CCCCN3CCN(C4CCCCC4)CC3)c3ccccc23)cc1 [CM 349]
Ki (σ-2; CM table, read-out: Ki (nM) […]2): 22.6 ± 1.13 nM | Ki (σ-1): 90.9 ± 12.3 nM

Fc1ccc(-c2cn(CCCCN3CCN(c4ccc(F)cc4)CC3)c3ccccc23)cc1 [CM 350]
Ki (σ-1): 1200 ± 73.9 nM

Cn1c(=O)n(CCCCN2CCN(C3CCCCC3)CC2)c2ccccc21 [CM 396]
Ki (σ-2; CM table, read-out: Ki (nM) […]2): 2.57 ± 0.47 nM

CC(=O)c1ccc2c(c1)oc(=O)n2CCCCN1CCN(c2ccc(F)cc2)CC1 [SN-79]
Ki (σ-2; SN table, read-out: Ki (nM) σ2): 6.06 nM | expression of cocaine-induced sensitization (behavioral sensitization) (Male, Swiss Webster mice [4]): attenuates the expression of cocaine-induced sensitization | attenuation of cocaine-induced convulsions (Male, Swiss Webster mice [6]): significant attenuation | attenuation of cocaine-induced locomotor activity (Male, Swiss Webster mice [7]): significant attenuation | development of cocaine-induced sensitization (Male, Swiss Webster mice [12]): attenuates the development of cocaine-induced sensitization

O=c1sc2cc(CCC[18F])ccc2n1CCN1CCCCCC1 [[^18F]FTC-146, 6-(3-fluoropropyl) -3-(2-(azapan-1-yl)ethyl) benzo [d] thiazol-2 (3H) -one]
stability of formulated version in saline/ethanol (9:1) [13]: at least 5.5 hours | uptake in cells transfected with σ-1 receptor cDNA versus control CHO cells (σ-1 receptor [1]): 4 fold | reduction of [18F]FTC-146 binding in the brain (σ-1 receptors [14]; at 60 min, pre-treatment with CM304 1 mg/kg 10 minutes prior to radioligand): 83% | tissue uptake (σ-1 receptors [14]; mouse, brain, iv, read-out: maximum uptake in brain): ~17 %ID/g

[17F]CCC1OC2(CCN(Cc3ccccc3)CC2)c2ccccc21 (stereo not shown) [[^18F]fluspidine]
brain level relative to its maximum (σ-1 receptor [15]; at 60 minutes post injection): 81% | reduction in brain uptake (σ-1 receptor [15]; biodistribution in mice, over 2 hours): 40% | time of maximum uptake in the brain (σ-1 receptor [15]; post injection): 30 min
